US11041009B2, “Glucose responsive insulin comprising a tri-valent sugar cluster for treatment of diabetes” (Merck Sharp & Dohme Corp., priority 2017, dated 2021)

Key:
[1] = biological target: T1, Human macrophage mannose receptor 1 (MRC1) (Homo sapiens, UniProt P22897); test: MRC1 competition binding assay with Eu-labeled mannosylated-BSA (Methods E and F); conditions: Method F: MRC1 assay in a 384-well plate; read-out: MRC1 Binding IP‡
T1 sequence (P22897 19-1456): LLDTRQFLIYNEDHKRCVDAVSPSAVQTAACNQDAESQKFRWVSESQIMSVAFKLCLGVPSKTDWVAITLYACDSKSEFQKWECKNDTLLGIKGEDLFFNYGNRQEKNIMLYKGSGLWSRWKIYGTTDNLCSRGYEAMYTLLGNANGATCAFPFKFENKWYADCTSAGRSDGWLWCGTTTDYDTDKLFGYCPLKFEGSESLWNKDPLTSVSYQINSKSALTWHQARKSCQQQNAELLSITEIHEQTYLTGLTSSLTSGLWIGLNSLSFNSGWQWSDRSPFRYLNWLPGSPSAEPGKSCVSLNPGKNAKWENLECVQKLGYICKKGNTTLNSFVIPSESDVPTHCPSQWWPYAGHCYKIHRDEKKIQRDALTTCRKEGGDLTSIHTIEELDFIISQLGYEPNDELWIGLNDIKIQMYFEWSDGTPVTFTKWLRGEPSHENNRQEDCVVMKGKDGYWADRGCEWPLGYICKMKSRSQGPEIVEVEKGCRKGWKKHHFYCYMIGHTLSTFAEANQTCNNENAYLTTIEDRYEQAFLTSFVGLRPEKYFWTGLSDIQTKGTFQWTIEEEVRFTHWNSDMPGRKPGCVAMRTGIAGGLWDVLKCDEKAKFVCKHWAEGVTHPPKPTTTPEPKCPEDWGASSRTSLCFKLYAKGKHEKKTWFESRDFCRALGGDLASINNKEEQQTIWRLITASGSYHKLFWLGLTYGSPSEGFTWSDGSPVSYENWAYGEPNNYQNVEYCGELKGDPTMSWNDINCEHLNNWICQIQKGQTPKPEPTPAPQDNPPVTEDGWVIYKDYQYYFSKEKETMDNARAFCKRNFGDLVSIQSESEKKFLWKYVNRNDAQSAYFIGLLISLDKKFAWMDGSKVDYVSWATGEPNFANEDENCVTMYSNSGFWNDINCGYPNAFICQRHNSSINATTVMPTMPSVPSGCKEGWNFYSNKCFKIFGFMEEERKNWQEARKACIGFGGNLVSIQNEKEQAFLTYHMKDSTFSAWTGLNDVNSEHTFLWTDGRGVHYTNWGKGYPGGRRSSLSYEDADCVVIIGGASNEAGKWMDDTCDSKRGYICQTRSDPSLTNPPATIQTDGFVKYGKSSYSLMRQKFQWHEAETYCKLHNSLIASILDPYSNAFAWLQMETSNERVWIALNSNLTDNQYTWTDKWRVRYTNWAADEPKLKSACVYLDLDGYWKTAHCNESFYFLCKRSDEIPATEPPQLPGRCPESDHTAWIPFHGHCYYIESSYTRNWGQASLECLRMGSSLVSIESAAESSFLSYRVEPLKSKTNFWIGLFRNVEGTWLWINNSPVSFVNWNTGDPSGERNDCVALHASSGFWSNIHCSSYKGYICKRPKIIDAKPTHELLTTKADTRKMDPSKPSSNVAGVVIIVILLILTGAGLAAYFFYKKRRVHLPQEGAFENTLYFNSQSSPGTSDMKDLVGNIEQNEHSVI
Procedure: Human macrophage mannose receptor 1 (MRC1) Binding Assays were performed as follows.
The competition binding assay for MRC1 utilized a ligand, mannosylated-BSA labeled with the DELFIA Eu-N1-ITC reagent, as reported in the literature. Assay was performed either in a 96-well plate with 100 μL well volume (Method E) or in a 384-well plate with 25 μL well volume (Method F). […] The antibody was incubated in the plate for 1 hr at room temperature with shaking. The plate was washed with wash buffer 3-5 times followed by addition of MRC1 (2 ng/μl final concentration) in PBS containing 1% stabilizer BSA. The plate was incubated at room temperature with gentle shaking for 1 hr. The plate was washed three times with wash buffer. The IOC molecules in 12.5 μL (or 50 μL depending on plate format) buffer at appropriate concentrations were added followed by 12.5 μL (or 50 μL) Eu-mannosylated-BSA (0.1 nM final concentration) in 50 mM Tris, pH 7.5 containing 100 mM NaCl, 5 mM CaCl2, 1 mM MgCl2 and 0.2% stabilizer BSA. The plate was incubated for 2 hrs at room temperature with shaking followed by washing three times with wash buffer. Perkin Elmer Eu-inducer reagent was added and incubated for 30 min at room temperature prior to detection of the Eu signal (Excitation=340 nm: Emission=615 nm).

human IR(B) = biological target: T2, human IR(B) (Homo sapiens, UniProt P06213); test: Insulin Receptor Phosphorylation Assay (MSD pIR assay; Methods A and B); type: cell-based; conditions: Method B: IR phosphorylation assay, 384-well with automated liquid dispense; CHO cells expressing human IR(B); read-out: IR Activation IP†
T2 construct: expressed in transfected cells
T2 sequence (P06213 28-758 limits assumed): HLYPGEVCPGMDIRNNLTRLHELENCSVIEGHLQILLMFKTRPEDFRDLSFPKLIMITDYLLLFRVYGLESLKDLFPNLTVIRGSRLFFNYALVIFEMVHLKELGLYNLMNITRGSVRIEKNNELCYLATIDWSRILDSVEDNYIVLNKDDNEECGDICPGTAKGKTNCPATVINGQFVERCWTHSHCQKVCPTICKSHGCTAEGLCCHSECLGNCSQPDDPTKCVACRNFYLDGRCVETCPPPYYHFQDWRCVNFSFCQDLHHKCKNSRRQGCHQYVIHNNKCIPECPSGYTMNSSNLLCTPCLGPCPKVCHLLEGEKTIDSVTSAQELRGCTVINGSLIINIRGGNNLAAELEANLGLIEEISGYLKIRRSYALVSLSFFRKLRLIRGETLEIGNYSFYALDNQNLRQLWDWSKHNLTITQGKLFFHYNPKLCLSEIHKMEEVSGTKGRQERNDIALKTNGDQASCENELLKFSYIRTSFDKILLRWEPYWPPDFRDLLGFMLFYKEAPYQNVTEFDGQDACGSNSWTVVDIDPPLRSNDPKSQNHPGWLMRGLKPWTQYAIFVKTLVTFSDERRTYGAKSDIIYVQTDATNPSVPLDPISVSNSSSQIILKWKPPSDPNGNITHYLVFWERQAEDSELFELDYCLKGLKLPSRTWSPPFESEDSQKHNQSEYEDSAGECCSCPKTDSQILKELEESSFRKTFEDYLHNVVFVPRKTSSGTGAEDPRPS
T2 sequence (P06213 763-1382 partner limits assumed): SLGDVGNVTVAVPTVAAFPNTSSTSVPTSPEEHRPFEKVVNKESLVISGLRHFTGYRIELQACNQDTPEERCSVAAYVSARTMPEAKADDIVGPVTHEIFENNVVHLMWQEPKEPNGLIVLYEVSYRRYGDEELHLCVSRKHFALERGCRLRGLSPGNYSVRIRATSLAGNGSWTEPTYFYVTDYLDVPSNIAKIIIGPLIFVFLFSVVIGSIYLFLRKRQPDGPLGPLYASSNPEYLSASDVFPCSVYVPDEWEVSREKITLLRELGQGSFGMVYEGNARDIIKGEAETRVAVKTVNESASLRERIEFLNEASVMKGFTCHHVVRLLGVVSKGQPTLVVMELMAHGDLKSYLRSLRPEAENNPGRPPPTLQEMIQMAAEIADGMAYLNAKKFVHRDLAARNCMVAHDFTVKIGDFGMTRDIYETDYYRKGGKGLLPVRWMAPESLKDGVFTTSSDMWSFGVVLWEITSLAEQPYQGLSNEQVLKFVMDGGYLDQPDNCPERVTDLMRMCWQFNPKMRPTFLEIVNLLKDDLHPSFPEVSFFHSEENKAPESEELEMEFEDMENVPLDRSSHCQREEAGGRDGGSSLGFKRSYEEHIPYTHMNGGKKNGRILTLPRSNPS
Procedure: Insulin Receptor Phosphorylation Assays were performed as follows.
Cells were harvested and frozen in aliquots for use in the MSD pIR assay. Briefly, the frozen cells were plated in either 96-well (40,000 cells/well, Method A) or 384-well (10,000 cells/well, Method B) clear tissue culture plates and allowed to recover. IOC molecules at the appropriate concentrations were added and the cells incubated for 8 min at 37° C. The media was aspirated and chilled MSD cell lysis buffer was added as per MSD kit instructions. The cells were lysed on ice for 40 min and the lysate then mixed for 10 minutes at room temperature. The lysate was transferred to the MSD kit pIR detection plates. The remainder of the assay was carried out following the MSD kit recommended protocol.

Question: Which results are given for `CC[C@H](C)[C@H](NC(=O)CN)C(=O)N[C@H](C(=O)N[C@@H](CCC(=O)O)C(=O)N[C@@H](CCC(N)=O)C(=O)N[C@H]1CSSC[C@@H]2NC(=O)[C@H]([C@@H](C)CC)NC(=O)[C@H](CO)NC(=O)[C@H]([C@@H](C)O)NC(=O)[C@H](CSSC[C@H](NC(=O)[C@H](CC(C)C)NC(=O)[C@H](Cc3c[nH]cn3)NC(=O)[C@H](CCC(N)=O)NC(=O)[C@H](CC(N)=O)NC(=O)[C@@H](NC(=O)[C@H](Cc3ccccc3)NC(=O)CCCCC(=O)N(CC(=O)NCCO[C@@H]3O[C@@H](C)[C@@H](O)[C@@H](O)[C@@H]3O)CC(=O)N(CCO[C@H]3O[C@H](CO)[C@@H](O)[C@H](O)[C@@H]3O)CCO[C@H]3O[C@H](CO)[C@@H](O)[C@H](O)[C@@H]3O)C(C)C)C(=O)NCC(=O)N[C@@H](CO)C(=O)N[C@@H](Cc3c[nH]cn3)C(=O)N[C@@H](CC(C)C)C(=O)N[C@@H](C(C)C)C(=O)N[C@@H](CCC(=O)O)C(=O)N[C@@H](C)C(=O)N[C@@H](CC(C)C)C(=O)N[C@@H](Cc3ccc(O)cc3)C(=O)N[C@@H](CC(C)C)C(=O)N[C@@H](C(C)C)C(=O)N[C@H](C(=O)NCC(=O)N[C@@H](CCC(=O)O)C(=O)N[C@@H](CCCNC(=N)N)C(=O)NCC(=O)N[C@@H](Cc3ccccc3)C(=O)N[C@@H](Cc3ccccc3)C(=O)N[C@@H](Cc3ccc(O)cc3)C(=O)N[C@H](C(=O)N3CCC[C@H]3C(=O)N[C@@H](CCCCNC(=O)CCCCC(=O)N(CC(=O)NCCO[C@@H]3O[C@@H](C)[C@@H](O)[C@@H](O)[C@@H]3O)CC(=O)N(CCO[C@H]3O[C@H](CO)[C@@H](O)[C@H](O)[C@@H]3O)CCO[C@H]3O[C@H](CO)[C@@H](O)[C@H](O)[C@@H]3O)C(=O)N[C@H](C(=O)O)[C@@H](C)O)[C@@H](C)O)CSSC[C@@H](C(=O)N[C@@H](CC(N)=O)C(=O)O)NC(=O)[C@H](Cc3ccc(O)cc3)NC(=O)[C@H](CC(N)=O)NC(=O)[C@H](CCC(=O)O)NC(=O)[C@H](CC(C)C)NC(=O)[C@H](CCC(N)=O)NC(=O)[C@H](Cc3ccc(O)cc3)NC(=O)[C@H](CC(C)C)NC(=O)[C@H](CO)NC2=O)NC1=O)C(C)C` [IOC-62]?
Answer: IC50 [1]: 5.12 nM; EC50 (human IR(B)): 0.77 nM

Question: Which results are given for `CC[C@H](C)[C@H](NC(=O)CNC(=O)CCCCC(=O)N(CC(=O)NCCO[C@H]1O[C@H](CO)[C@@H](O)[C@H](O)[C@@H]1O)CC(=O)N(CCO[C@H]1O[C@H](CO)[C@@H](O)[C@H](O)[C@@H]1O)CCO[C@H]1O[C@H](CO)[C@@H](O)[C@H](O)[C@@H]1O)C(=O)N[C@H](C(=O)N[C@@H](CCC(=O)O)C(=O)N[C@@H](CCC(N)=O)C(=O)N[C@H]1CSSC[C@@H]2NC(=O)[C@H]([C@@H](C)CC)NC(=O)[C@H](CO)NC(=O)[C@H]([C@@H](C)O)NC(=O)[C@H](CSSC[C@H](NC(=O)[C@H](CC(C)C)NC(=O)[C@H](Cc3c[nH]cn3)NC(=O)[C@H](CCC(N)=O)NC(=O)[C@H](CC(N)=O)NC(=O)[C@@H](NC(=O)[C@@H](N)Cc3ccccc3)C(C)C)C(=O)NCC(=O)N[C@@H](CO)C(=O)N[C@@H](Cc3c[nH]cn3)C(=O)N[C@@H](CC(C)C)C(=O)N[C@@H](C(C)C)C(=O)N[C@@H](CCC(=O)O)C(=O)N[C@@H](C)C(=O)N[C@@H](CC(C)C)C(=O)N[C@@H](Cc3ccc(O)cc3)C(=O)N[C@@H](CC(C)C)C(=O)N[C@@H](C(C)C)C(=O)N[C@H](C(=O)NCC(=O)N[C@@H](CCC(=O)O)C(=O)N[C@@H](CCCNC(=N)N)C(=O)NCC(=O)N[C@@H](Cc3ccccc3)C(=O)N[C@@H](Cc3ccccc3)C(=O)N[C@@H](Cc3ccc(O)cc3)C(=O)N[C@H](C(=O)N3CCC[C@H]3C(=O)N[C@@H](CCCCNC(=O)CCCCC(=O)N(CC(=O)NCCO[C@H]3O[C@H](CO)[C@@H](O)[C@H](O)[C@@H]3O)CC(=O)N(CCO[C@H]3O[C@H](CO)[C@@H](O)[C@H](O)[C@@H]3O)CCO[C@H]3O[C@H](CO)[C@@H](O)[C@H](O)[C@@H]3O)C(=O)N[C@H](C(=O)O)[C@@H](C)O)[C@@H](C)O)CSSC[C@@H](C(=O)N[C@@H](CC(N)=O)C(=O)O)NC(=O)[C@H](Cc3ccc(O)cc3)NC(=O)[C@H](CC(N)=O)NC(=O)[C@H](CCC(=O)O)NC(=O)[C@H](CC(C)C)NC(=O)[C@H](CCC(N)=O)NC(=O)[C@H](Cc3ccc(O)cc3)NC(=O)[C@H](CC(C)C)NC(=O)[C@H](CO)NC2=O)NC1=O)C(C)C` [IOC-60]?
Answer: IC50 [1]: 33.1 nM; EC50 (human IR(B)): 1.85 nM

Question: Which IC50 [1] does the source give for `CC[C@H](C)[C@H](NC(=O)CN)C(=O)N[C@H](C(=O)N[C@@H](CCC(=O)O)C(=O)N[C@@H](CCC(N)=O)C(=O)N[C@H]1CSSC[C@@H]2NC(=O)[C@H]([C@@H](C)CC)NC(=O)[C@H](CO)NC(=O)[C@H]([C@@H](C)O)NC(=O)[C@H](CSSC[C@H](NC(=O)[C@H](CC(C)C)NC(=O)[C@H](Cc3c[nH]cn3)NC(=O)[C@H](CCC(N)=O)NC(=O)[C@H](CC(N)=O)NC(=O)[C@@H](NC(=O)[C@H](Cc3ccccc3)NC(=O)CCCCC(=O)N(CC(=O)NCCO[C@H]3O[C@H](CO)[C@@H](O)[C@H](O)[C@@H]3O)CC(=O)N(CCO[C@H]3O[C@H](CO)[C@@H](O)[C@H](O)[C@@H]3O)CCO[C@H]3O[C@H](CO)[C@@H](O)[C@H](O)[C@@H]3O)C(C)C)C(=O)NCC(=O)N[C@@H](CO)C(=O)N[C@@H](Cc3c[nH]cn3)C(=O)N[C@@H](CC(C)C)C(=O)N[C@@H](C(C)C)C(=O)N[C@@H](CCC(=O)O)C(=O)N[C@@H](C)C(=O)N[C@@H](CC(C)C)C(=O)N[C@@H](Cc3ccc(O)cc3)C(=O)N[C@@H](CC(C)C)C(=O)N[C@@H](C(C)C)C(=O)N[C@H](C(=O)NCC(=O)N[C@@H](CCC(=O)O)C(=O)N[C@@H](CCCNC(=N)N)C(=O)NCC(=O)N[C@@H](Cc3ccccc3)C(=O)N[C@@H](Cc3ccccc3)C(=O)N[C@@H](Cc3ccc(O)cc3)C(=O)N[C@H](C(=O)N3CCC[C@H]3C(=O)N[C@@H](CCCCNC(=O)CCCCC(=O)N(CC(=O)NCCO[C@H]3O[C@H](CO)[C@@H](O)[C@H](O)[C@@H]3O)CC(=O)N(CCO[C@H]3O[C@H](CO)[C@@H](O)[C@H](O)[C@@H]3O)CCO[C@H]3O[C@H](CO)[C@@H](O)[C@H](O)[C@@H]3O)C(=O)N[C@H](C(=O)O)[C@@H](C)O)[C@@H](C)O)CSSC[C@@H](C(=O)N[C@@H](CC(N)=O)C(=O)O)NC(=O)[C@H](Cc3ccc(O)cc3)NC(=O)[C@H](CC(N)=O)NC(=O)[C@H](CCC(=O)O)NC(=O)[C@H](CC(C)C)NC(=O)[C@H](CCC(N)=O)NC(=O)[C@H](Cc3ccc(O)cc3)NC(=O)[C@H](CC(C)C)NC(=O)[C@H](CO)NC2=O)NC1=O)C(C)C` [IOC-61] here?
Answer: 17.9 nM

Question: What about the EC50 (human IR(B)) of the same compound?
Answer: 1.13 nM
